Legend:
[1] = tested on: Ba/F3 FLT3-ITD cells; assay: Inhibition of Ba/F3 FLT3-ITD cell proliferation (CTG); format: cell-based; conditions: 72 hours, read-out: BaF3 [FLT3-ITD] IC50
Procedure: (§1) Cell lines were cultured under the condition of 37° C., 5% CO2 and 95% humidity: cell line Ba/F3 parental (suspended, 3000 cells/well, medium was RPMI-1640+10% FBS+8 ng/ml IL-3), cell line Ba/F3 FLT3-ITD (suspended, 3000 cells/well, medium was RPMI-1640+10% FBS)
(§2) Reagents and materials: Fetal bovine serum (FBS, GBICO, Cat. No. 10099-141), CellTiter-Glo® Luminescent Cell Viability Assay (Promega, Cat. No. G7572), 96-well plate with transparent flat bottom and black walls (Corning®, Cat. No. 3603), control compound AC220 (Selleck, Cat. No. S1526).
(§3) Cell Culture and Inoculation: • 1. Cells in the logarithmic growth phase were harvested and counted using a platelet counter. The cell viability was determined by trypan blue exclusion method to ensure that the cell viability was greater than 90%; • 2. The cell concentration was adjusted and 90 μL of the cell suspension was added into a 96-well plate respectively; • 3. The cells in the 96-well plate were cultured overnight under the condition of 37° C., 5% CO2 and 95% humidity.
(§4) Drug Dilution and Dosing: • 1. The 10-fold drug solutions were prepared with a maximum concentration of 100 μM, which was diluted using a 3.16-fold serial gradient dilution, resulting in 9 concentrations. 10 μL of the drug solutions was added to each well of the 96-well plate inoculated with Ba/F3 parental cells; and each drug concentration was set in triplicate. • 2. The 10-fold drug solutions were prepared with a maximum concentration of 10 μM, which was diluted using a 3.16-fold serial gradient dilution, resulting in 9 concentrations. 10 μL of the drug solutions was added to each well of the 96-well plate inoculated with Ba/F3 FLT3-ITD cells; and each drug concentration was set in triplicate. • 3. The cells in the 96-well plate with drugs were cultured at 37° C., 5% CO2 and 95% humidity for 72 hours, and then CTG analysis was carried out.
(§5) Plate Reading at the End Point: • 1. CTG reagent was thawed and the cell plate was equilibrated to room temperature for 30 minutes; • 2. Equal volume of the CTG solution was added to each well; • 3. The cell plate was shaked on the orbital shaker for 5 minutes to lyse the cells; • 4. The cell plate was placed at room temperature for 20 minutes to stabilize the cold light signal; • 5. The cold light values were read.
(§6) GraphPad Prism 8.0 software was used to analyze the data, and the data was fitted using the non-linear S-curve regression to get a dose-effect curve, and IC50 values were calculated. Cell viability (%)=(Lum of test drug−Lum of medium control)/(Lum of cell control−Lum of medium control)×100%.

[2] = tested on: Ba/F3 parental cells; assay: Inhibition of Ba/F3 parental cell proliferation (CTG); format: cell-based; conditions: Mus musculus, BaF3, 72 hours, with IL-3
Procedure: as §1, §2, §3, §4, §5, §6

[3] = Metabolic stability in human liver microsomes; format: in vitro ADME; conditions: pH 7.4; human liver microsomes 0.5 mg/mL, 1 μM compound
Procedure: Microsome assay: human liver microsomes: 0.5 mg/mL, Xenotech; rat liver microsomes: 0.5 mg/mL, Xenotech; coenzyme (NADPH/NADH): 1 mM, Sigma Life Science; magnesium chloride: 5 mM, 100 mM phosphate buffer (pH 7.4).
Preparation of stock solutions: Powder of the example compounds and the control compound were accurately weighed and dissolved in DMSO to 5 mM respectively.
Preparation of phosphate buffer (100 mM, pH7.4): A pre-prepared 0.5 M potassium dihydrogen phosphate (150 mL) was mixed with 0.5 M dibasic potassium phosphate (700 mL). The pH of the mixture was adjusted to 7.4 with 0.5 M dibasic potassium phosphate solution. The mixture was diluted 5-fold with ultrapure water before use, and magnesium chloride was added to obtain a phosphate buffer (100 mM) containing 100 mM potassium phosphate, 3.3 mM magnesium chloride, pH 7.4.
A NADPH regeneration system solution (containing 6.5 mM NADP, 16.5 mM G-6-P, 3 U/mL G-6-P D, 3.3 mM magnesium chloride) was prepared and placed on wet ice prior to use.
Preparation of stop solution: an acetonitrile solution containing 50 ng/mL propranolol hydrochloride and 200 ng/mL tolbutamide (internal standard). 25057.5 μL of phosphate buffer (pH 7.4) was taken into a 50 mL centrifuge tube, to which 812.5 μL of human liver microsomes were added, and mixed to obtain a liver microsome dilution with a protein concentration of 0.625 mg/mL. 25057.5 μL of phosphate buffer (pH 7.4) was taken into a 50 mL centrifuge tube, to which 812.5 μL of SD rat microsomes were added, and mixed to obtain a liver microsome dilution with a protein concentration of 0.625 mg/mL.
Incubation of the samples: The stock solutions of the respective compounds were respectively diluted to 0.25 mM with an aqueous solution containing 70% acetonitrile, and used as a working solution, ready for use. 398 μL of the dilutions of human liver microsomes and rat liver microsomes were added to 96-well incubation plates (N=2), respectively, and 2 μL of 0.25 mM working solution was added respectively and mixed.
Metabolic stability assay: 300 μL of pre-chilled stop solution was added to each well of 96-well deep well plates and placed on ice as stop plates. The 96-well incubation plates and NADPH regeneration system were placed in a 37° C. water bath, shaken at 100 rpm and pre-incubated for 5 min. 80 μL of incubation solution was taken out from each well of the incubation plates and added to the stop plates, mixed, and replenished with 20 μL of NADPH regeneration system solution as a 0-min sample. 80 μL of NADPH regeneration system solution was added to each well of the incubation plates to start the reaction and start counting. […] Separately, 100 μL of the reaction solutions was taken at 10, 30, and 90 min after the reaction, respectively, added to stop plates, and vortexed for 3 minutes to terminate the reaction. The stop plates were centrifuged at 5000×g at 4° C. for 10 min. 100 μL of the supernatant was added to a 96-well plate to which 100 μL of distilled water was previously added, mixed, and analyzed by LC-MS/MS.
Data analysis: The peak areas of the corresponding compounds and internal standard were detected by LC-MS/MS system, and the ratio of the peak area of the compounds to the internal standard was calculated.

Row | IC50 [1] [µM] | half-life at 1 μM [3] [h] | microsomal CLint at 1 μM [3] [µL/min/mg] | SMILES | IC50 [2] [µM]
1 | 0.0944 | 3.14 | 7.4 | [2H]C([2H])([2H])N1CCN(C2CCN(c3ccc(Nc4nc(NC5CCOCC5)c(C([2H])([2H])C([2H])([2H])[2H])nc4C(N)=O)cc3OC)CC2)CC1 [Compound T-5, 6-(ethyl-d5)-3-((3-methoxy-4-(4-(4-(methyl-d3)piperazin-1-yl)piperidin-1-yl)phenyl)amino)-5-((tetrahydro-2H-pyran-4-yl)amino)pyrazine-2-carboxamide] | 9.29
2 | 0.085 | 4.36 | 5.3 | [2H]C1([2H])N(C)C([2H])([2H])C([2H])([2H])N(C2CCN(c3ccc(Nc4nc(NC5CCOCC5)c(CC)nc4C(N)=O)cc3OC)CC2)C1([2H])[2H] [Compound T-8, 6-ethyl-3-((3-methoxy-4-(4-(4-methylpiperazin-1-yl-2,2,3,3,5,5,6,6-d8)piperidin-1-yl)phenyl)amino)-5-((tetrahydro-2H-pyran-4-yl)amino)pyrazine-2-carboxamide] | 6.87
3 | 0.072 | 7.88 | 2.9 | [2H]C([2H])([2H])N1C([2H])([2H])C([2H])([2H])N(C2CCN(c3ccc(Nc4nc(NC5CCOCC5)c(CC)nc4C(N)=O)cc3OC)CC2)C([2H])([2H])C1([2H])[2H] [Compound T-9, 6-ethyl-3-((3-methoxy-4-(4-(4-(methyl-d3)piperazin-1-yl-2,2,3,3,5,5,6,6-d8)piperidin-1-yl)phenyl)amino)-5-((tetrahydro-2H-pyran-4-yl)amino)pyrazine-2-carboxamide] | > 10
4 |  | 2.75 | 8.4 | CCc1nc(C(N)=O)c(Nc2ccc(N3CCC(N4CCN(C)CC4)CC3)c(OC)c2)nc1NC1CCOCC1 [Gilteritinib, 6-ethyl-3-((3-methoxy-4-(4-(4-methylpiperazin-1-yl)piperidin-1-yl)phenyl)amino)-5-((tetrahydro-2H-pyran-4-yl)amino)pyrazine-2-carboxamide, reference compound] | 

The next lines start with the molecule.

Row | SMILES | IC50 [1] [µM] | half-life at 1 μM [3] [h] | microsomal CLint at 1 μM [3] [µL/min/mg] | IC50 [2] [µM]
5 | [2H]C([2H])([2H])Oc1cc(Nc2nc(NC3CCOCC3)c(CC)nc2C(N)=O)ccc1N1CCC(N2CCN(C)CC2)CC1 [Compound T-1, 6-ethyl-3-((3-(methoxy-d3)-4-(4-(4-methylpiperazin-1-yl)piperidin-1-yl)phenyl)amino)-5-((tetrahydro-2H-pyran-4-yl)amino)pyrazine-2-carboxamide] | 0.0465 |  |  | 9.72
6 | [2H]C([2H])([2H])N1CCN(C2CCN(c3ccc(Nc4nc(NC5CCOCC5)c(CC)nc4C(N)=O)cc3OC)CC2)CC1 [Compound T-2, 6-ethyl-3-((3-methoxy-4-(4-(4-(methyl-d3)piperazin-1-yl)piperidin-1-yl)phenyl)amino)-5-((tetrahydro-2H-pyran-4-yl)amino)pyrazine-2-carboxamide] | 0.0513 | 3.63 | 6.4 | 7.16
7 | [2H]C([2H])([2H])Oc1cc(Nc2nc(NC3CCOCC3)c(CC)nc2C(N)=O)ccc1N1CCC(N2CCN(C([2H])([2H])[2H])CC2)CC1 [Compound T-3, 6-ethyl-3-((3-(methoxy-d3)-4-(4-(4-(methyl-d3)piperazin-1-yl)piperidin-1-yl)phenyl)amino)-5-((tetrahydro-2H-pyran-4-yl)amino)pyrazine-2-carboxamide] | 0.089 | 3.33 | 6.9 | 5.37

From patent US11512074B2, “Substituted diamino heterocyclic carboxamide compound and a composition containing the compound and use thereof” (Shenzhen TargetRx, Inc., priority 2018, dated 2022)
